Laboratory results published in patent US20230129364A1, “PYRROLIDINE DERIVATIVE, AND PHARMACEUTICAL COMPOSITION FOR PREVENTING OR TREATING BETA-AMYLOID OR TAU PROTEIN-ASSOCIATED DISEASES CONTAINING SAME” (YONSEI UNIVERSITY, UNIVERSITY - INDUSTRY FOUNDATION (UIF), priority 2019, published 2023).

Experiments:
[1] = biological target: T1, P-Tau AT8 (S202, T205) (Homo sapiens, UniProt P10636, P618L); experiment: Phosphorylated tau degradation in HEK293T P301L mutant cell line, Western blot, P-Tau AT8; assay type: cell-based; details: 72 hours, HEK293T P301L cells, Western blot quantified with Image J
T1 construct: host or cells: HEK293T
Text: (§1) Specifically, the pRK5-EGFP-Tau P301L vector from Addgene (Addgene, MA, USA) was purchased and used in order to stably express P301L, which is a known representative mutation of pathological tau, in HEK293T cells. The P301L vector was inserted into HEK293T cells using a FuGENE HD transfection reagent (Promega, WI, USA) and then stabilized. The cells were removed therefrom and then only the cells into which the vector was inserted were isolated using a fluorescence-activated cell sorter (BD FACS Aria III, BD Bioscience, NJ, USA). After the isolated cells were incubated for 2 to 3 days, they were removed again and separated and cultured using a FACS twice to finally obtain a HEK293T P301 mutant cell line.
(§2) The obtained cells were seeded in each well of a 6-well plate and stabilized for 18 hours, and then each well was treated with the compound of Example 1 such that the final concentration reached 1 or 10 μM. The control group was treated with the same concentration (0.01%) of DMSO used as the solvent of the compound of Example. 72 hours later, the protein was extracted with a lysis buffer and quantified, and then Western blot was performed. A protein sample was electrophoresed on a 4-20% mini-PROTEIN TGX precast protein gel (Bio-Rad, CA, USA) and transferred to a PVDF membrane (Immobilon-P, Merck, Darmstadt, Germany). The primary antibodies used herein were P-Tau AT8 (#MN1020), P-Tau S396 (#44-752G), and P-Tau S356 (#44-751G) from ThermoFisher scientific (MA, USA), and GAPDH (SC-47724) from SANTA CRUZ Biotechnology (TX, USA). The secondary antibody used herein was rabbit/mouse IgG from GeneTex (CA, USA). The image obtained through ImageQuant LAS 4000 (GE healthcare, IL, USA) and the result of quantification using an Image J program are shown in FIG. 1.

[2] = biological target: T2, P-Tau (S396) (Homo sapiens, UniProt P10636, P618L); experiment: Phosphorylated tau degradation in HEK293T P301L mutant cell line, Western blot, P-Tau S396; assay type: cell-based; details: 72 hours, HEK293T P301L cells, Western blot quantified with Image J
T2 construct: host or cells: HEK293T
Text: as §1, §2

[3] = biological target: T3, P-Tau (S356) (Homo sapiens, UniProt P10636, P618L); experiment: Phosphorylated tau degradation in HEK293T P301L mutant cell line, Western blot, P-Tau S356; assay type: cell-based; details: 72 hours, HEK293T P301L cells, Western blot quantified with Image J
T3 construct: host or cells: HEK293T
Text: as §1, §2

[4] = biological target: T4, non-pathological (WT) tau (Homo sapiens, UniProt P10636); experiment: SPR binding affinity of tau PROTAC to WT tau; details: CM5 sensor chip, concentration-dependent kinetic assay, nonpathological WT tau, read-out: binding affinity (Ka) to tau
T4 construct: made in house; host or cells: Star pLysS cells (E. coli), pRSET-B vector, IPTG induction
Experimental: (§3) The following experiment was performed to verify that the compound according to the present invention selectively degrades only phosphorylated tau. In order to biophysically analyze selective binding of the tau PROTAC to P301S, which is known as a representative mutant of pathological tau, non-pathological (WT) tau and pathological (P301S) tau were cloned into pRSET-B vectors to obtain plasmids. Star pLysS cells were used to overexpress proteins and 1 mM IPTG was added to the medium at an OD600 of 0.4 to 0.6. The intracellular proteins were extracted from the cells lysed in a lysis buffer through heat shock (95° C.), and WT tau and P301S tau were obtained at a high purity (>95%) using cation exchange chromatography and size exclusion chromatography.
(§4) Whether or not the obtained proteins bound to the tau PROTAC was determined through an SPR experiment. A CM5 sensor chip including dextran attached thereto was used, tau PROTAC was allowed to flow and the binding affinity between the protein and the compound was determined based on a response unit (RU). The binding affinity (Ka) to the protein was measured using concentration-dependent kinetic assay. The results of measurement of binding affinity between the tau PROTAC compound and non-pathological WT Tau or pathological P301S tau are shown in FIG. 2. […]

[5] = biological target: T5, pathological (P301S) tau (Homo sapiens, UniProt P10636, P618S); experiment: SPR binding affinity of tau PROTAC to P301S tau; details: CM5 sensor chip, concentration-dependent kinetic assay, read-out: binding affinity (Ka) to the P301S tau
T5 construct: made in house; host or cells: Star pLysS cells (E. coli), pRSET-B vector, IPTG induction
Experimental: as §3, §4

T3 sequence (P10636 1-383 isoform P10636-6 P243L): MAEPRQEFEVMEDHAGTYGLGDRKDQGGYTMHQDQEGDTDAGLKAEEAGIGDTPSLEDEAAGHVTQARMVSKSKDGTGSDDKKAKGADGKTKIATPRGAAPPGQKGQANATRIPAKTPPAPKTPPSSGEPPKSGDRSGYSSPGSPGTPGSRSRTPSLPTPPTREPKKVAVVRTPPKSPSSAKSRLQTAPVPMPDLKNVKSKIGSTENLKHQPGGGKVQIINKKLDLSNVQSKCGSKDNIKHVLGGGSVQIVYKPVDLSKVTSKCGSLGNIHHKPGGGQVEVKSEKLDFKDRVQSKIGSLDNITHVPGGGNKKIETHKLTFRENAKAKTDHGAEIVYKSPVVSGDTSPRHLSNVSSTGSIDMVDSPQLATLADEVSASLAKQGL
T2 sequence (P10636 1-383 isoform P10636-6 P243L): as above
T1 sequence (P10636 1-383 isoform P10636-6 P243L): as above
T4 sequence (P10636 1-441 isoform P10636-8): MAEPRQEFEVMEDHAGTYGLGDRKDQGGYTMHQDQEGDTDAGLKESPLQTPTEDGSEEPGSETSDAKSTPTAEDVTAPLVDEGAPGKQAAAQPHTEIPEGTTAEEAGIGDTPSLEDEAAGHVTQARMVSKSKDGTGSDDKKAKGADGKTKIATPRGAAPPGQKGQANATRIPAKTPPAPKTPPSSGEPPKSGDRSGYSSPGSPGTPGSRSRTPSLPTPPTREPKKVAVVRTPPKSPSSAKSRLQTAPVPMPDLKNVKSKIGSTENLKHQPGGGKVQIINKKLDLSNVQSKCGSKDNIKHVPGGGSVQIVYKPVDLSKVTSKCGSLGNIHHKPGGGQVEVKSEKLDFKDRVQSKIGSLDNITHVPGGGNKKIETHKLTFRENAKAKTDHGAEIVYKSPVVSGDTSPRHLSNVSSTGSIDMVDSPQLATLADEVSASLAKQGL
T5 sequence (P10636 1-441 isoform P10636-8 P301S): as the sequence (P10636 1-441 isoform P10636-8) above, with P301S counted along it

SMILES	degradation activity compared to the control group, P-Tau AT8 (S202, T205) ([1]; 10 μM)	degradation activity, P-Tau (S396) ([2]; 1 μM)	degradation activity, P-Tau (S396) ([2]; 10 μM)	phosphorylated tau degradation activity, P-Tau (S356) ([3]; 10 μM)	Kd [4]	Kd [5]	degradation activity compared to the control group, P-Tau AT8 (S202, T205) ([1]; 1 μM)	phosphorylated tau degradation activity, P-Tau (S356) ([3]; 1 μM)
CCN1C(=O)/C(=C/c2cn(Cc3cn(CCOCCOCCOCC(=O)Nc4cccc5c4C(=O)N(C4CCC(=O)NC4=O)C5=O)nn3)c3cccnc23)NC1=S (stereo not shown) [TAU-1 PROTAC, (Z)—N-(2-(2,6-dioxopiperidin-3-yl)-1,3-dioxoisoindolin-4-yl)-2-(2-(2-(2-(4-((3-((1-ethyl-5-oxo-2-thioxoimidazolidin-4-ylidene)methyl)-1H-pyrrolo[3,2-b]pyridin-1-yl)methyl)-1H-1,2,3-triazol-1-yl)ethoxy)ethoxy)ethoxy)acetamide]	26%	67%	67%	81%	190 µM	42 µM		
CCN1C(=O)/C(=C/c2cn(Cc3cn(CCOCCOCC(=O)Nc4cccc5c4C(=O)N(C4CCC(=O)NC4=O)C5=O)nn3)c3ccccc23)NC1=S (stereo not shown) [TAU-2 PROTAC, (Z)—N-(2-(2,6-dioxopiperidin-3-yl)-1,3-dioxoisoindolin-4-yl)-2-(2-(2-(4-((3-((1-ethyl-5-oxo-2-thioxoimidazolidin-4-ylidene)methyl)-1H-indol-1-yl)methyl)-1H-1,2,3-triazol-1-yl)ethoxy)ethoxy)acetamide]	53%	30%		80%	199 µM	18.7 µM	59%	62%
